Assay results taken from BindingDB's records for doi:10.1074/jbc.M110.181594 (Institut Pasteur, 2010).

Target: T1, 2'-deoxynucleoside 5'-phosphate N-hydrolase 1 (Rattus norvegicus, UniProt O35820)
T1 sequence (O35820 whole entry): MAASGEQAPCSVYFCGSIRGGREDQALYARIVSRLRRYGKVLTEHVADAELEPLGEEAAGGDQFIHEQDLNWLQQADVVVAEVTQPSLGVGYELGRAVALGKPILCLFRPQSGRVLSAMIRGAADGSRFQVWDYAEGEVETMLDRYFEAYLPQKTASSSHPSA
Test: Inhibition Assay
Source text: Rcl inhibition by nucleotides.

| SMILES | Ki [µM] |
| --- | --- |
| Nc1ncnc2c1ncn2C1OC(COP(O)(O)=S)C(O)C1O (centres undefined) [5'-AMPS] | 14 |
| NC(=O)c1ncn(C2OC(COP(=O)(O)O)C(O)C2O)c1N (centres undefined) [[5-(5-amino-4-carbamoyl-1H-imidazol-1-yl)-3,4-dihydroxyoxolan-2-yl]methyl phosphate] | 52 |
| O=c1[nH]c(=O)c2ncn(C3OC(COP(=O)(O)O)C(O)C3O)c2[nH]1 (centres undefined) [XMP] | 54 |
| Nc1nc(=O)c2ncn(COCCOP(=O)(O)O)c2[nH]1 [Acyclovir 5'-monophosphate] | 57 |
